Calls of active or inactive are those of the source.
What was measured:
[1] = target: T1, Neuropeptide Y receptor type 2 (Homo sapiens, UniProt P49146); assay: Fluorescence-based cell-based high-throughput dose response assay for agonists of NPY-Y2. [Related pubchem assays: 1703 (Screening assay (CNGC inhibitors).), 1359 (Screening assay (NPY-Y2 potentiators or agonists).), 1304 (Screening assay (NPY-Y1 potentiators or agonists).), 1710 (Screening assay (NPY-Y2 agonists).), 1791 (Summary AID.)]; format: functional
T1 sequence (P49146 whole entry): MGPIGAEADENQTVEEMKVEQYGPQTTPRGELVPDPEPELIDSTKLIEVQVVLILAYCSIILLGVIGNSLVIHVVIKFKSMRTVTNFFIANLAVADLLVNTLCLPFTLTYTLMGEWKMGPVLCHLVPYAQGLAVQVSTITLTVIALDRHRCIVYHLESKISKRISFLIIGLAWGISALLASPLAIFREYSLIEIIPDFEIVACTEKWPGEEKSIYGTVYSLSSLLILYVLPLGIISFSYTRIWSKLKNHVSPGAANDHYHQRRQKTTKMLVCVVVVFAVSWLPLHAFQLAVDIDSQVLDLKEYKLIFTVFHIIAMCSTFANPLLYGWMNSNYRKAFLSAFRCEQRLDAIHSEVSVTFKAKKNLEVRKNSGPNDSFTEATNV

[2] = target: T2, Neuropeptide Y receptor type 1 (Homo sapiens, UniProt P25929); assay: Fluorescence-based counterscreen for agonists of NPY-Y2: cell-based high-throughput dose response assay for agonists of NPY-Y1.; format: functional
T2 sequence (P25929 whole entry): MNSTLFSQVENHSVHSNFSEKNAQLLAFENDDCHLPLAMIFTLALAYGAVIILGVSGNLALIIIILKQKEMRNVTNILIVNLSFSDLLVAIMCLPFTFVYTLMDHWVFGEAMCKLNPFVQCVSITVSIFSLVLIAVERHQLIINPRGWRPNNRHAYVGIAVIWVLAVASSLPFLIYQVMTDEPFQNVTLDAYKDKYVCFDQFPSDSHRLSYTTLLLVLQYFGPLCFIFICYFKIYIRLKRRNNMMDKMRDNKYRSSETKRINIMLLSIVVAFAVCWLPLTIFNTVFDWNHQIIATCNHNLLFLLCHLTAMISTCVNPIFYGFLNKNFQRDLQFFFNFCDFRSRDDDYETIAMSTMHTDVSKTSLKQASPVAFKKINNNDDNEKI

HEK293 [3] = assay: Fluorescence-based counterscreen for potentiators or agonists of NPY-Y2: cell-based high-throughput dose response assay to identify inhibitors of cyclic nucleotide gated ion channel (CNGC) activity. In this assay, the parental HEK293 cell line transfected with a cyclic-nucleotide gated ion channel (CNGC)-based cAMP sensor is used to measure inhibition of isoproterenol-induced CNGC activity by test compound.; format: functional; settings: Homo sapiens
[4] = target: Guanyl-specific ribonuclease T1 (Aspergillus oryzae (strain ATCC 42149 / RIB 40), UniProt P00651); assay: RNase T1 inhibitors, dose response, counter-screen for TPT1 inhibitor project, biochemical, fluorescence polarization, 1536-well (AID 2167)
Chain of Guanyl-specific ribonuclease T1 (P00651 whole entry): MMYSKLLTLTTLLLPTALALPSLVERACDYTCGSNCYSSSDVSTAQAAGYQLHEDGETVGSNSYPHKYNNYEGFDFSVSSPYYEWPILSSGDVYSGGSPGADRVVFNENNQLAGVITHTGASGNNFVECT

[5] = target: Likely tRNA 2'-phosphotransferase (Candida albicans (strain SC5314 / ATCC MYA-2876) (Yeast), UniProt Q5A7N4); assay: TPT1 tRNA phosphotransferase inhibitors, dose response, biochemical, fluorescence polarization (AID 2160)
Chain of Likely tRNA 2'-phosphotransferase (Q5A7N4 whole entry, the tested form may be a part): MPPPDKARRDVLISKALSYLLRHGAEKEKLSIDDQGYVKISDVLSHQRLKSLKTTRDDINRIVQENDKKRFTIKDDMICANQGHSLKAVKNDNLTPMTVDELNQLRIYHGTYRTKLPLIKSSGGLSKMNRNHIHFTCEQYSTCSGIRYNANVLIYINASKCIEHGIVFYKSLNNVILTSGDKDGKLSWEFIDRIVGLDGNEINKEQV

[6] = target: Nucleotide-binding oligomerization domain-containing protein 2 (Homo sapiens, UniProt Q9HC29); assay: PubChem AID 2334; format: functional
Chain of Nucleotide-binding oligomerization domain-containing protein 2 (Q9HC29 whole entry, the tested form may be a part): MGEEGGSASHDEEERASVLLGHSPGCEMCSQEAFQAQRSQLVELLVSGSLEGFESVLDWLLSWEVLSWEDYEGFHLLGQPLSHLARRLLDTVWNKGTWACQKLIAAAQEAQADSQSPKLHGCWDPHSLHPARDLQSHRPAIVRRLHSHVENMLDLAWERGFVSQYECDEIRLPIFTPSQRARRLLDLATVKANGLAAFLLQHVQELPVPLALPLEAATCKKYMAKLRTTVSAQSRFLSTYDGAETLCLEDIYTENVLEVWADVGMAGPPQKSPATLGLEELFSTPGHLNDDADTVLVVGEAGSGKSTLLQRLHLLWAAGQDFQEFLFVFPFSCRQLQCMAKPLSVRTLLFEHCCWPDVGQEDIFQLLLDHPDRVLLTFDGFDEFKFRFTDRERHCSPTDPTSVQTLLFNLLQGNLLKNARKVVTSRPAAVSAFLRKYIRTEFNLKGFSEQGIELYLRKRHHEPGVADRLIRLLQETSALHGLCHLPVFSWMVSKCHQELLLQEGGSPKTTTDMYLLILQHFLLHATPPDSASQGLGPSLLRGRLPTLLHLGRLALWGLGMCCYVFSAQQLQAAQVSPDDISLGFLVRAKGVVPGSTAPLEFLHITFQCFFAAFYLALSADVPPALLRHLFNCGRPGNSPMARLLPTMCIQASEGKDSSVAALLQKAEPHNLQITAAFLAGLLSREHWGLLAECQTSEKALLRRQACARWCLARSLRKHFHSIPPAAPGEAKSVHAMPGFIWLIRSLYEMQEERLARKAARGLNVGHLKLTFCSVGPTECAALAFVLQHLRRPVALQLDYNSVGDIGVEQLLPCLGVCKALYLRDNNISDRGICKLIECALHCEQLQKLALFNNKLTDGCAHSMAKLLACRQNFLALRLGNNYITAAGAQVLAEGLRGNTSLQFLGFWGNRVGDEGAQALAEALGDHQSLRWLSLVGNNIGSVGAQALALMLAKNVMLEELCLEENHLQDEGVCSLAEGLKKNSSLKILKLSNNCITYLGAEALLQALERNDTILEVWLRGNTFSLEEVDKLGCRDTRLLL

HEK293 [7] = assay: cells; settings: Homo sapiens
Tumor necrosis factor = Tumor necrosis factor (Homo sapiens, UniProt P01375); assay: TNFa-triggered NF-kB activation inhibitors, SAR follow-up, cell-based, revised (AID 2337); format: functional
Chain of Tumor necrosis factor (P01375 whole entry, the tested form may be a part): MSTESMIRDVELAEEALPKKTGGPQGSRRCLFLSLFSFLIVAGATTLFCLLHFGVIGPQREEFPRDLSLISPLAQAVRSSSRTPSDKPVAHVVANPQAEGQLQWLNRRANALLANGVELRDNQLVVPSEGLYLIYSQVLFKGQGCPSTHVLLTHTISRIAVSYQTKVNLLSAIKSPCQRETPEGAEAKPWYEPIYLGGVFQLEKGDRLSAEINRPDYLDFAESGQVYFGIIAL

[8] = target: T3, Nucleotide-binding oligomerization domain-containing protein 1 (Homo sapiens, UniProt Q9Y239); assay: NOD1 signaling inhibitors, SAR follow-up, revised (AID 2333); format: functional
T3 sequence (Q9Y239 whole entry): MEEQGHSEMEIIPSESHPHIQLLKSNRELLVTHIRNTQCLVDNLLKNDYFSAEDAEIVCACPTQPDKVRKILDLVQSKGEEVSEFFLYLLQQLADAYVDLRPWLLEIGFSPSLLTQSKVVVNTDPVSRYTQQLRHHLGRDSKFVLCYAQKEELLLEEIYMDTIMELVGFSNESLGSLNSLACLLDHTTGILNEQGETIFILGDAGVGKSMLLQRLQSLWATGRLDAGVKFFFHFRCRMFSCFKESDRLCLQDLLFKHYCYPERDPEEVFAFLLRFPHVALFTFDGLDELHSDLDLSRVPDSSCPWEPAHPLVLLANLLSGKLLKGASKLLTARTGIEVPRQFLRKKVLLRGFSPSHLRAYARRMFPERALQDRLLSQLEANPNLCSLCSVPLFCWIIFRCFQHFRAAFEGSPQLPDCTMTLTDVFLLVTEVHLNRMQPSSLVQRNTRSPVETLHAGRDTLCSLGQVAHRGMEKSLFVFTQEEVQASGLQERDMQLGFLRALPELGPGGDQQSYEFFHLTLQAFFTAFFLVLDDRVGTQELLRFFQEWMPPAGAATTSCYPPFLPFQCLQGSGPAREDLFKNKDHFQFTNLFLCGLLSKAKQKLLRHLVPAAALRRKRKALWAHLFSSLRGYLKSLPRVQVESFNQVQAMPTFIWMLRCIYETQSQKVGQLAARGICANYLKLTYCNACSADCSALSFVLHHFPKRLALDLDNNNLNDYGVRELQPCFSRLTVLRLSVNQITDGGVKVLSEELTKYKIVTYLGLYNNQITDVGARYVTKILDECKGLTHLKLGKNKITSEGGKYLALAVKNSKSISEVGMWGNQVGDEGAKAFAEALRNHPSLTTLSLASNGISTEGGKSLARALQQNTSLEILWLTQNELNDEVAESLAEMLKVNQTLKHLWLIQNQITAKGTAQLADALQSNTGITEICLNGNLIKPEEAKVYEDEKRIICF

[9] = target: Eukaryotic translation initiation factor 4H (Homo sapiens, UniProt Q15056); assay: human eIF4H binding inhibitors, primary screen, translation initiation inhibitor project, biochemical, uHTS, fluorescence polarization (AID 2012)
[10] = target: Polyadenylate-binding protein 1 (Homo sapiens, UniProt P11940); assay: PABP poly(A) RNA binding inhibitors, primary screen, biochemical, fluorescence polarization, uHTS (AID 2014)
Chain of Polyadenylate-binding protein 1 (P11940 whole entry): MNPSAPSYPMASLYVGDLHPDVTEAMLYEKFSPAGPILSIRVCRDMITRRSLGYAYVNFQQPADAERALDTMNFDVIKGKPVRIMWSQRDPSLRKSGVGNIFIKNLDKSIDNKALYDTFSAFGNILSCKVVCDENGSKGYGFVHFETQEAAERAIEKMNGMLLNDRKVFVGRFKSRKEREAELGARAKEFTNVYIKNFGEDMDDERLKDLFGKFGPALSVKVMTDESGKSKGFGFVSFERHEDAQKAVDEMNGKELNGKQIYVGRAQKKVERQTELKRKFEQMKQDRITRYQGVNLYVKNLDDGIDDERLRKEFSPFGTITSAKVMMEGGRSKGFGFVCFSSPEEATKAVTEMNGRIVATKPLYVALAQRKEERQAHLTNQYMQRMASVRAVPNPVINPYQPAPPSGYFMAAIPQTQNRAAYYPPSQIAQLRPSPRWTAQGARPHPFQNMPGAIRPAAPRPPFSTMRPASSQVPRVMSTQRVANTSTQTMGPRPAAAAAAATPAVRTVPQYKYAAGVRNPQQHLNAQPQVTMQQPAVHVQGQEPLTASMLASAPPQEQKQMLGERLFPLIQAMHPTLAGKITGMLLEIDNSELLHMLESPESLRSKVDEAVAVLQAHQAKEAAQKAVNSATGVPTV

[11] = target: DNA dC->dU-editing enzyme APOBEC-3A (Homo sapiens, UniProt P31941); assay: Dose Response confirmation of small molecule APOBEC3A DNA Deaminase Inhibitors via a fluorescence-based single-stranded DNA deaminase assay. [Related pubchem assays (depositor defined):AID493011, AID493024]; format: functional
Chain of DNA dC->dU-editing enzyme APOBEC-3A (P31941 whole entry): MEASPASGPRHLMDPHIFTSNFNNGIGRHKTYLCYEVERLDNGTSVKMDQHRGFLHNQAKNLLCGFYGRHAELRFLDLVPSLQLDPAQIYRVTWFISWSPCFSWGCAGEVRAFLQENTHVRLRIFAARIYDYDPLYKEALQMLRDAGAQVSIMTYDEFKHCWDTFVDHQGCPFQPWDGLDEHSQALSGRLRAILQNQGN

[12] = target: DNA dC->dU-editing enzyme APOBEC-3G (Homo sapiens, UniProt Q9HC16); format: functional;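 also: Dose-response counterscreen measuring inhibition of APOBEC3G DNA deaminase activity, run while confirming APOBEC3A inhibitors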
Chain of DNA dC->dU-editing enzyme APOBEC-3G (Q9HC16 whole entry): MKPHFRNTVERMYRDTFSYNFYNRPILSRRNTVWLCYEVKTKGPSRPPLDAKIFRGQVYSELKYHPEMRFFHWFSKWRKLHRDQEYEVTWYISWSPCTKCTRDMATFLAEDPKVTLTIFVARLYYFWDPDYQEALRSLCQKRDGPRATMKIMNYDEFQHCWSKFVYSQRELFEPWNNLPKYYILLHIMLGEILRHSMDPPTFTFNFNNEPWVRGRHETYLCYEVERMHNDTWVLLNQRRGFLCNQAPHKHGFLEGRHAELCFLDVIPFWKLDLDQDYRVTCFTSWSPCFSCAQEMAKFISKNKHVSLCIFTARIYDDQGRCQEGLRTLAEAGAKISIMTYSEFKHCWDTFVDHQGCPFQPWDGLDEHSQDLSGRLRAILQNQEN

X-box-binding protein 1 = X-box-binding protein 1 (Homo sapiens, UniProt P17861); format: functional, Cricetulus griseus;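 also: confirmatory dose-response counter-screen serving a CHOP assay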
Chain of X-box-binding protein 1 (P17861 whole entry): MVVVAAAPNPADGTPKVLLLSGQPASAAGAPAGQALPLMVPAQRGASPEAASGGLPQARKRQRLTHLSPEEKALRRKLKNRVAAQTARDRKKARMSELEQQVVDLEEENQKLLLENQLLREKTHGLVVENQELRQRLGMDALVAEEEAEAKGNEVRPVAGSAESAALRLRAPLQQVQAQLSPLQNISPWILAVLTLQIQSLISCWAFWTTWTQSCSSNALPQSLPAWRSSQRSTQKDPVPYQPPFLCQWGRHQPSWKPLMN

[13] = target: T4, Replicative DNA helicase DnaB (Mycobacterium tuberculosis, UniProt P9WMR3); assay: DnaB intein splicing inhibitors, dose response, biochemical, cell-free fluorescence (AID 449749); format: functional
T4 sequence (P9WMR3 whole entry): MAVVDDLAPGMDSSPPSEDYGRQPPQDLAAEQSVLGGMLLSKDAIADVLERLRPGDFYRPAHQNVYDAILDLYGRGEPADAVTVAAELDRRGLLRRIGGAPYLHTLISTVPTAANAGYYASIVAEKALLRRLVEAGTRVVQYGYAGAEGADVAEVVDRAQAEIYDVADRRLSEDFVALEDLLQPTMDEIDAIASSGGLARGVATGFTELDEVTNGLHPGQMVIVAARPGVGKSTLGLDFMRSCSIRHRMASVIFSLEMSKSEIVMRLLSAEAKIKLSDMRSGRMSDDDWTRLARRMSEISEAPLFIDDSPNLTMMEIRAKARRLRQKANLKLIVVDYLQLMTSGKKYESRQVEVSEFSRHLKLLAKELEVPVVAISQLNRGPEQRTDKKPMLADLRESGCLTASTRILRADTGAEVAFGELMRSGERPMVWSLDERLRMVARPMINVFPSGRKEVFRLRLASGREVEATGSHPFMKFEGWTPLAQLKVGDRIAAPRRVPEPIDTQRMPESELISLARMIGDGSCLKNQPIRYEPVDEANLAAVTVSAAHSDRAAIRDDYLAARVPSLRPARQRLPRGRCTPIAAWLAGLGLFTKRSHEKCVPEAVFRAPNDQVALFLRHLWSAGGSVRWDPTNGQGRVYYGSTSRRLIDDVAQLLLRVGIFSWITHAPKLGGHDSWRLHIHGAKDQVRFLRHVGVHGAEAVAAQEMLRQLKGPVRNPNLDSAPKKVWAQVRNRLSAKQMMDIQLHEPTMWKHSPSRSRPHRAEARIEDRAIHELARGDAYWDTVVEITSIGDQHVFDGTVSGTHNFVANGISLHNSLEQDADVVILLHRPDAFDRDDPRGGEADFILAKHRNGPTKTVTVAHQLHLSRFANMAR

Protein RecA = target: T5, Protein RecA (Mycobacterium tuberculosis, UniProt P9WHJ3); assay: Fluorescence Cell-Free Homogeneous Dose Retest to Identify Inhibitors of RecA-Intein Splicing Activity. [Related pubchem assays (depositor defined):AID2097, AID2223, AID489010, AID492950]; format: functional
T5 sequence (P9WHJ3 whole entry): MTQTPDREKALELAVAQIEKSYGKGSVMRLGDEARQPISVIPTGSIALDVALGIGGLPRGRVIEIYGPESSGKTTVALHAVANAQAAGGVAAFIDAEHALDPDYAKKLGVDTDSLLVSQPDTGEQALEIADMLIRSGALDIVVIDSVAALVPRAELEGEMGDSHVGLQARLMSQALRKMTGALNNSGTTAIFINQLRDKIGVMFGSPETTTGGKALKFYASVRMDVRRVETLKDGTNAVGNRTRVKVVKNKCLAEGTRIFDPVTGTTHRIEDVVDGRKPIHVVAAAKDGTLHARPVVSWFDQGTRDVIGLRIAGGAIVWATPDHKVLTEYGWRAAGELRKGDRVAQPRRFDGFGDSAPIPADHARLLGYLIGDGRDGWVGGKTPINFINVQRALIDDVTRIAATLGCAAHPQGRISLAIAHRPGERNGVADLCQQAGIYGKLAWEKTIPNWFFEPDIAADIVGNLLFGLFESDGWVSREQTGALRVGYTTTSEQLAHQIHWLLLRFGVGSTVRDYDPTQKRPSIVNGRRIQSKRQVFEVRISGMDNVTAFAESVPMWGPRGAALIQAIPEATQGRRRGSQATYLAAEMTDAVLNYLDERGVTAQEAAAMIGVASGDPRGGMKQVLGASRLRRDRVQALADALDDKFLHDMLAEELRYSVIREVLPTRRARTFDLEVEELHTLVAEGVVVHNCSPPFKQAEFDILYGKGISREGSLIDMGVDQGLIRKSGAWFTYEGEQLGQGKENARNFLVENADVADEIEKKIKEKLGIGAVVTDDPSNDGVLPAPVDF

SMILES: COC(=O)c1ccc(NC(=O)CSc2nnc(C(C)NC(=O)c3ccccc3Cl)n2C)cc1 (stereo not drawn)
- EC50 [1]: 19.8 µM (not active)
- EC50 [2]: 26.4 µM (not active)
- EC50 (HEK293 [3]): 12.7 µM (not active)

SMILES: Cc1ccc(N2C(=O)NC(=O)/C(=C\c3ccc([N+](=O)[O-])o3)C2=O)cc1
- IC50 [4]: > 55.7 µM (not active)
- IC50 [5]: 5.55 µM (active)

SMILES: COC(=O)c1scc(S(=O)(=O)C(C)C)c1NN=C(C#N)C(=O)c1ccc(Cl)cc1
- IC50 [6]: 5.88 µM (active)
- IC50 (HEK293 [7]): > 20 µM (inactive)
- IC50 (Tumor necrosis factor): 10.9 µM (active)
- IC50 [8]: 5.43 µM (active)

SMILES: CC[n+]1c(C)n(CC(O)COCC2CC=CCC2)c2ccccc21 (stereo not drawn)
- IC50 [9]: 92.2 µM (active)
- IC50 [10]: 5.47 µM (active)
- IC50 [11]: 2.12 µM (active)
- IC50 [12]: 3.86 µM (active)

SMILES: Cc1cc(-c2[nH]nc3c2C(c2ccc(Cl)cc2)C(C#N)=C(N)O3)c(C)s1 (stereo not drawn)
- Absolute IC50 (XBP1) (X-box-binding protein 1): 10 µM
- AC50 [13]: 3.07 µM (active)
- EC50 (Protein RecA): 3.42 µM (active)

SMILES: C[N+]1(CCOS(=O)C23CC4CC(CC(C4)C2)C3)CCOCC1 (stereo not drawn)
- IC50 [9]: > 100 µM (inactive)
- IC50 [10]: 11.8 µM (active)

SMILES: CCC(=O)N1CCc2cc(S(=O)(=O)N3CCN(c4ccc(C(C)=O)cc4)CC3)ccc21
- IC50 [6]: > 20 µM (inactive)
- IC50 (HEK293 [7]): > 20 µM (inactive)
- IC50 (Tumor necrosis factor): > 20 µM (inactive)
- IC50 [8]: > 20 µM (inactive)

SMILES: Oc1ccc(N=Nc2cccc(C(F)(F)F)c2)cc1/C=N/c1ccc(N2CCOCC2)cc1
- Absolute IC50 (XBP1) (X-box-binding protein 1): 10 µM
